{
  "source": "patent US8476454B2",
  "about": "“IDO inhibitors and methods of use” (Lankenau Institute for Medical Research, priority 2003, dated 2013)",
  "key": {"allogenic conceptus": {"system": "allogenic conceptus", "test": "allogeneic conceptus rejection in mice", "format": "in vivo, mouse", "details": "20 mg/day from two time-release pellets; unpublished results", "protocol": "(§1) The time-release pellets are composed of a copolymer which is inert and gradually dissolves and breaks down to a non-toxic substance that remains largely localized during the course of the experiment. […] Two pellets per mouse were implanted to deliver a total dose of 20 mg/day. Therefore, for a 25 g mouse the total dose is 800 mg/kg/day or 280 mg over a 14 day period. Steady-state levels were reached within 12-24 hours and are maintained throughout the entire period based on the manufacturer's specifications."}, "[1]": {"details": "time-release pellets, manufacturer's specifications; cited from earlier work"}, "[2]": {"system": "tumor growth in a mouse model", "details": "Friberg et al. 2002; U.S. Pat. No. 6,482,416; cited from earlier work"}, "[3]": {"test": "HPLC analysis of mouse serum for compound level", "format": "in vivo", "details": "2×140 mg 1MT pellets implanted subcutaneously, 3 days, male FVB mice", "source_text": "Protein was removed by TCA precipitation."}, "IDO": {"system": "IDO", "details": "cited from earlier work; for potency ranking as IDO inhibitor (literature): Peterson et al. 1993, 1994"}, "[4]": {"system": "established tumors in MMTVneu \"oncomouse\" model", "test": "MMTVneu transgenic oncomouse model of breast cancer, change in tumor volume over two weeks", "format": "in vivo, mouse", "details": "for effect on tumor growth: two week course, 1MT 20 mg/day s.c. time-release pellets, cytotoxics i.v. at maximum-tolerated doses", "source_text": "The MMTVneu transgenic “oncomouse” model of breast cancer was used to measure the effects of IDO inhibitors and STIs on tumor pathophysiology. The MMTVneu transgenic mouse develops aggressive tumors of the mammary gland that resemble poorly differentiated human ductal carcinomas. In the MMTVneu mouse model, breast cancer is initiated by tissue-specific expression of a mutant form of the HER-2/Neu gene that is activated frequently in aggressive human breast ductal carcinomas. HER-2 is a member of the EGF-R family of cell surface growth factor receptors. Myc is an obligate downstream effector for HER-2/Neu to drive cancer. Female MMTVneu “oncomice” are mated twice to initiate expression from the mouse mammary tumor virus (wry) promoter which drives transcription of the Neu/HER2 oncogene in mammary tissue. Mammary tumors arise with a penetrance of >90% in this model system by 5 months of age. MMTVneu “oncomice” bearing similarly sized tumors of ˜150 mm^3 were randomly assigned to control or experimental treatment groups. Control mice were implanted with placebo time-release pellets (Innovative Research, Inc., Sarasota, Fla.).\nas §1, with “period.” for “period. Steady-state levels were reached within 12-24 hours and are maintained throughout the entire period based on the manufacturer's specifications.”\nTime-release pellets were introduced subcutaneously on the backs of mice anesthetized by intramuscular injection of ketamin/rompun. Blunt dissection with a hemostat is used to separate the skin from the underlying muscle to create a subcutaneous pocket. One or two biodegradable slow release pellets were implanted within this pocket, rather than directly under the incision in order to prevent mechanical stress and wound dehiscence. The incision was then closed with wound clips.\nMMTVneu “oncomice” bearing similarly sized tumors of ˜150 mm^3 were randomly assigned to control or experimental treatment groups. Control mice were implanted with placebo time-release pellets (Innovative Research, Inc., Sarasota, Fla.).\nThe cytotoxic chemotherapeutic agents were prepared and delivered to the mice as follows. Paclitaxel was dissolved in equal volumes of absolute ethanol and the clinically-used solubilizing agent Cremophor® EL. The solution was sonicated up to 30 minutes and stored as a 20 mg/ml stock solution at 4° C. for up to one week. Before use, this solution was diluted further at 1:5 with sterile physiological saline. Paclitaxel formulated in this manner was administered to mice by a single bolus intravenous (i.v.) injection into the tail vein. Mouse tails can be warmed to facilitate identification and injection of the vein. […] The MTD of cisplatin (1 mg/kg) was obtained as a clinical preparation in saline and delivered as a bolus i.v. injection on the same schedule. Control treated mice received only the Cremophor° EL vehicle formulation without paclitaxel.\nStatistical analysis of the tumors of MMTVneu mice after various treatments. Numbers are provided as percent change in tumor volume as compared to the tumor volume prior to treatment."}, "[5]": {"target": "T1, tryptophan 2,3-dioxygenase (TDO2) (Homo sapiens, UniProt P48775)", "T1 construct": "expressed in transfected cells; host or cells: human 293/Phoenix cells", "T1 sequence (P48775 whole entry)": "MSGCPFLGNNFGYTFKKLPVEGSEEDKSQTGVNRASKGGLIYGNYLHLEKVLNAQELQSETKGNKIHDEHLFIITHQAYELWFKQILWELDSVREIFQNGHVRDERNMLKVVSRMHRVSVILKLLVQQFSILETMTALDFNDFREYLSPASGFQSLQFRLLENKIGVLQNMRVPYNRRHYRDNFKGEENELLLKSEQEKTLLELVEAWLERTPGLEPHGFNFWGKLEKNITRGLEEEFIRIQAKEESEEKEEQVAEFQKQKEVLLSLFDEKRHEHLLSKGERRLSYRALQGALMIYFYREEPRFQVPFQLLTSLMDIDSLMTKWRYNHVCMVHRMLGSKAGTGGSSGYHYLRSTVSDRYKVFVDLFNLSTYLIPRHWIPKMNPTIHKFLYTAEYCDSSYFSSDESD", "test": "cell-based screen, 293/Phoenix cells transiently transfected with TDO (selectivity)", "details": "IDO versus TDO2", "protocol": "FIGS. 27A-27C provide a chart of certain IDO inhibitors, their structures, and their ability to inhibit IDO and TDO activity at a concentration of 250 μM in a cell-based assay.\nThe candidate compounds were also screened in a cell-based assay (for similar assay see Munn et al. (1999) J. Exp. Med. 189:1363-1372). Briefly, human 293/Phoenix cells were transiently transfected with human IDO or TDO cDNA expression vectors. The candidate compounds were added to the transfected cells at various concentrations. Kynurenine was quantitated in tissue culture media using a fluorescence-based protocol."}, "human IDO [6]": {"target": "T2, human IDO (Homo sapiens, UniProt P14902)", "T2 sequence (P14902 whole entry)": "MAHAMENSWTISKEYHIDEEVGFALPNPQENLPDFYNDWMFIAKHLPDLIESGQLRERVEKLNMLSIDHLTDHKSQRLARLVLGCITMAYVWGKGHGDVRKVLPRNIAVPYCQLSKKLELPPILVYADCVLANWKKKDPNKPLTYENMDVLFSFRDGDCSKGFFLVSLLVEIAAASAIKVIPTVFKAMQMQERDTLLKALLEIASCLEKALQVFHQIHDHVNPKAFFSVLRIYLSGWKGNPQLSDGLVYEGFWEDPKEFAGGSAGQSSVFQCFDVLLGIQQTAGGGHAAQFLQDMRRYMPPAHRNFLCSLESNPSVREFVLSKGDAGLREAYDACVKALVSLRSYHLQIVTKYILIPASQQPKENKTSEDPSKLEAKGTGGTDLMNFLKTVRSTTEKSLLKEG", "test": "IDO enzyme assay (kynurenine production), enzyme kinetics for Ki", "format": "biochemical", "quoted_text": "Data were plotted and analyzed using the Prism4 software package (GraphPad).\nThis assay is also used to determine Ki values for specific compounds, which is important for the development of SAR (structure activity relationship) around the different compound series.\nKynurenine production can be measured at 1 hour. More extensive enzyme kinetic data can be collected for selected compounds of interest."}, "human IDO [7]": {"target": "T2, human IDO", "test": "cell-based screen, 293/Phoenix cells transiently transfected with human IDO, kynurenine in media"}, "intracellular IDO": {"target": "T3, intracellular IDO (Homo sapiens, UniProt P14902)", "T3 construct": "expressed in transfected cells; host or cells: COS-1 cells, CMV promoter-driven plasmid, Lipofectamine 2000", "T3 sequence (P14902 whole entry)": "as above", "test": "cell-based IDO inhibitor assay, COS-1 cells transiently transfected with IDO cDNA, dose escalation", "quoted_text": "COS-1 cells are transiently transfected with a CMV promoter-driven plasmid expressing IDO cDNA using Lipofectamine 2000 (Invitrogen) as recommended by the manufacturer. […] The following day the wells are washed and new media (phenol red free) containing 20 μg/ml tryptophan is added together with inhibitor."}, "[8]": {"details": "compared to the tumor volume prior to treatment, two weeks"}},
  "data": [
    {"smiles": "Cn1cc(CC(N)C(=O)O)c2ccccc21", "note": "(racemic) [1MT, 1-methyl-DL-tryptophan]", "values": [
      {"measurement": "allogenic conceptus rejection", "setting": "allogenic conceptus", "result": "effective at eliciting allogenic conceptus rejection"},
      {"measurement": "time to steady-state levels", "setting": "[1]", "result": "12 to 24", "unit": "h"},
      {"measurement": "effect on tumor growth (literature)", "setting": "[2]", "result": "only retarded and did not prevent tumor growth"},
      {"measurement": "1MT level in serum", "setting": "[3]", "result": "~100", "unit": "µM"}
    ]},
    {"smiles": "Nc1cc2ccccc2cc1C(=O)O", "note": "[3-amino-2-naphthoic acid]", "values": [
      {"measurement": "potency ranking as IDO inhibitor (literature)", "setting": "IDO", "result": "most potent IDO inhibitor"}
    ]},
    {"smiles": "CCCCc1cc2c(cn1)[nH]c1ccccc12", "note": "[3-butyl-β-carboline]", "values": [
      {"measurement": "potency ranking as IDO inhibitor (literature)", "setting": "IDO", "result": "most active derivative"}
    ]},
    {"smiles": "CC[C@H](C)[C@@H](CO[C@@H](Cc1ccccc1)C(=O)N[C@@H](CCS(C)(=O)=O)C(=O)OC(C)C)NC[C@@H](N)CS", "note": "[L-744,832]", "values": [
      {"measurement": "effect on tumor growth", "setting": "[4]", "result": "retarded but did not block tumor growth"}
    ]},
    {"smiles": "CN1C(=O)C(Cc2c[nH]c3ccccc23)NC1=S", "note": "(centres unmarked) [MTH-Trp, 3-(N-methyl-thiohydantoin)-indole]", "values": [
      {"measurement": "selectivity over tryptophan 2,3-dioxygenase (TDO2)", "setting": "[5]", "result": "significant selectivity"},
      {"measurement": "potency of direct IDO enzyme inhibition relative to 1MT", "setting": "human IDO [6]; compared with 1MT", "result": "about 3 fold"},
      {"measurement": "Ki", "setting": "human IDO [6]; human IDO, global nonlinear regression of enzyme kinetic data, read-out: Best fit values of Ki", "result": 11.4, "unit": "µM"},
      {"measurement": "inhibition of IDO activity relative to 1MT", "setting": "human IDO [7]; at a concentration of 250 μM, compared with 1MT", "result": 2.7, "unit": "times"},
      {"measurement": "potency ranking among screened compounds", "setting": "human IDO [7]; cell-based screen", "result": "most potent of these inhibitors"},
      {"measurement": "EC50", "setting": "intracellular IDO; COS-1 cells expressing IDO, 5 hours, 20 μg/ml tryptophan", "result": 12.9, "unit": "µM"},
      {"measurement": "potency against intracellular IDO relative to 1MT", "setting": "intracellular IDO; compared with 1MT", "result": "~20", "unit": "fold"}
    ]},
    {"smiles": "C=CCN1C(=O)C(Cc2c[nH]c3ccccc23)NC1=S", "note": "(centres unmarked) [N-allyl, 3-(N-allyl-thiohydantoin)-indole]", "values": [
      {"measurement": "selectivity over tryptophan 2,3-dioxygenase (TDO2)", "setting": "[5]", "result": "significant selectivity"}
    ]},
    {"smiles": "O=C1C(Cc2c[nH]c3ccccc23)NC(=S)N1c1ccccc1", "note": "(centres unmarked) [N-phenyl, 3-(N-phenyl-thiohydantoin)-indole]", "values": [
      {"measurement": "selectivity over tryptophan 2,3-dioxygenase (TDO2)", "setting": "[5]", "result": "significant selectivity"}
    ]},
    {"smiles": "c1ccc2c(c1)[nH]c1sncc12", "note": "[brassilexin]", "values": [
      {"measurement": "mode of IDO inhibition (literature)", "setting": "IDO; Peterson et al. 1993", "result": "noncompetitive inhibitor of IDO"}
    ]},
    {"smiles": "N.N.[Cl][Pt][Cl]", "note": "[cisplatin]", "values": [
      {"measurement": "Maximum percent change in tumor volume", "setting": "[4]; [8]", "result": 255.6, "unit": "%"},
      {"measurement": "Mean percent change in tumor volume", "setting": "[4]; [8]", "result": 91.35, "unit": "%"},
      {"measurement": "Median percent change in tumor volume", "setting": "[4]; [8]", "result": 40, "unit": "%"},
      {"measurement": "Minimum percent change in tumor volume", "setting": "[4]; [8]", "result": "−26.53", "unit": "%"},
      {"measurement": "effect on tumor growth", "setting": "[4]", "result": "retarded but did not block tumor growth"}
    ]},
    {"smiles": "CC(=O)O[C@H]1C(=O)[C@@]2(C)[C@H]([C@H](OC(=O)c3ccccc3)[C@]3(O)C[C@H](OC(=O)[C@H](O)[C@@H](NC(=O)c4ccccc4)c4ccccc4)C(C)=C1C3(C)C)[C@]1(OC(C)=O)CO[C@@H]1C[C@@H]2O", "note": "[paclitaxel]", "values": [
      {"measurement": "25% Percentile percent change in tumor volume", "setting": "[4]; [8]", "result": 40.25, "unit": "%"},
      {"measurement": "75% Percentile percent change in tumor volume", "setting": "[4]; [8]", "result": 247.6, "unit": "%"},
      {"measurement": "Maximum percent change in tumor volume", "setting": "[4]; [8]", "result": 360.8, "unit": "%"},
      {"measurement": "Mean percent change in tumor volume", "setting": "[4]; [8]", "result": 139.4, "unit": "%"},
      {"measurement": "Median percent change in tumor volume", "setting": "[4]; [8]", "result": 130.4, "unit": "%"},
      {"measurement": "Minimum percent change in tumor volume", "setting": "[4]; [8]", "result": 20, "unit": "%"},
      {"measurement": "effect on tumor growth", "setting": "[4]", "result": "retarded but did not block tumor growth"}
    ]}
  ]
}
